Measurements from US7169787B2, “7-azaindoles, use thereof as phosphodiesterase 4 inhibitors and method for producing the same” (Elbion AG, priority 2000, dated 2007).

Tests used:
PDE 4 = assay: Inhibition of phosphodiesterase 4 (enzyme preparation from human PMNL, [3H]-cAMP); assay type: biochemical; details: PDE 4 from human PMNL cytosol, 0.5 μM [3H]-cAMP
Experimental: The PDE 4 activity is determined in enzyme preparations from human polymorphonuclear […] (PMNL) and the PDE 2, 3 and 5 activity is determined with PDE from human thrombocytes. Human blood was anti-coagulated with citrate. By centrifuging at 700×g for 20 minutes at room temperature, the thrombocyte-rich plasma in the supernatant is separated from the erythrocytes and leukocytes. The thrombocytes are lysed by ultrasound and used in the PDE 3 and PDE 5 assays. For the determination of the PDE 2 activity, the cytosolic thrombocyte fraction is purified on an anionic exchange column by means of NaCl gradients and the PDE 2 peak is obtained for the assay. The PMNLs for the PDE 4 determination are isolated by a subsequent dextran sedimentation, followed by a gradient centrifugation with Ficoll-Paque. After the cells have been washed twice, the erythrocytes, still contained, are lysed within 6 minutes at 4° C. by the addition of 10 mL of hypotonic buffer (155 mM of NH4Cl, 10 mM of NaHCO3, 0.1 mM of EDTA, pH=7.4). The PMNLs, which are still intact, are washed twice with PBS and lysed with ultrasound. The supernatant of a one-hour centrifugation at 4° C. at 48,000×g contains the cytosolic fraction of the PDE 4 and is used for the PDE 4 measurements.
The phosphodiesterase activity is determined using the method described by Thompson et al. with some modifications (Thompson, W. J. and M. M. Appleman, Assay of cyclic nucleotide phosphodiesterase and resolution of multiple molecular forms of the enzyme, Adv. Cycl. Nucl. Res. 1979, 10, 69–92).
The reaction mixtures contain 50 mM of tris hydrochloride (pH 7.4), 5 mM of magnesium chloride, the inhibitors in various concentrations, the corresponding enzyme preparation as well as the further components necessary for determining the individual isoenzymes (see below). The reaction is started by the addition of the substrate, 0.5 μM of [^3H]-cAMP or [^3H]-cGMP (approximately 6000 CPM per test). The final volume is […]. Test substances are mixed as stock solutions in DMSO. The DMSO concentration in the reaction mixture is 1% v/v. The PDE activity is not affected by this concentration of DMSO. After the reaction is started by the addition of substrate, samples are incubated for 30 minutes at 37° C. The reaction is stopped by heating the test tubes for 2 minutes at 110° C. The samples remain for a further 10 minutes in ice. The addition of 30 μL of 5′-nucleotidase (1 mg/mL, from a poisonous snake suspension from Crotalus adamanteus) is followed by a 10-minutes incubation at 37° C. The samples are stopped on ice, in each case 400 μL of a mixture of Dowex, water and ethanol (1+1+1) is added, mixed well and incubated once again for 15 minutes on ice. The reaction vessels are centrifuged for 20 minutes at 3000×g. Aliquots of the supernatant (200 μL) are transferred directly to scintillation vessels. After the addition of 3 mL of scintillator, the samples are measured in the beta counter.
[^3H]-cAMP is used as substrate for the determination of the PDE 4, 3 and 2 activity and [^3H]-cGMP is used as substrate for the determination of the PDE 5 activity. The enzyme activities, which are nonspecific in each case, are determined in the presence of 100 μM of Rolipram for the determination of PDE 4 and in the presence of 100 μM of IBMX for the determination of the PDE 3 and 5 and subtracted from the test values. The incubation formulations of the PDE 3 assays contained 10 μM of Rolipram, in order to inhibit possible contaminations by PDE 4. The PDE 2 is tested with an SPA assay of the Amersham Company. The assay is carried out in the presence of the activator of the PDE 2 (5 μM of cGMP).

IC50 (PDE 4) | melting point | SMILES
2 nM | 152 to 154 °C | CC(C)Cn1cc(C(=O)C(=O)Nc2c(Cl)cncc2Cl)c2cccnc21 [Example 27]
4 nM |  | O=C(Nc1c(Cl)cncc1Cl)C(=O)c1cn(Cc2ccc(F)cc2)c2ncccc12 [Example 14]
